The record followed here is publication PMC5477233 (Chembiochem : a European journal of chemical biology, 2016).

“Also recorded” adds a separate entry of the source.

In the assay the test system is human insulin receptor. The assay can be described thus: in vitro binding to the human insulin receptor. The settings on record: compared with wild-type biosynthetic human insulin (Figure S10).

[(1-^13C=^18O)Phe^B24]human insulin: the receptor-binding activity entry is listed as “full insulin receptor binding activity; also recorded: fully active in insulin receptor binding”.
